Measurements published in article PMC12090182, “Repurposing of the RIPK1-Selective Benzo[1,4]oxazepin-4-one Scaffold for the Development of a Type III LIMK1/2 Inhibitor” (ACS Chemical Biology, 2025).

Assays:
Test in all cases: scanMAX KINOMEscan (Eurofins)
Type in all cases: binding
MAK = MAK (Homo sapiens, UniProt P20794); settings: compound concentration 100 nM; Entrez MAK; read-out: Percent Control
Text: (§1) Supplement cb5c00097_si_002.xlsx, sheet "Table S6 (Eurofins Selectivity)" | column: Percent Control

[1] = target: JAK3(JH1domain-catalytic) (Homo sapiens, UniProt P52333); settings: 1000 nM, read-out: Percent Control
Text: as §1

WEE2 = WEE2 (Homo sapiens, UniProt P0C1S8); settings: 1000 nM, read-out: Percent Control
Text: as §1

MAP3K4 = MAP3K4 (Homo sapiens, UniProt Q9Y6R4); settings: 1000 nM, read-out: Percent Control
Text: as §1

GRK1 = GRK1 (Homo sapiens, UniProt Q15835); settings: read-out: Percent Control
Sequence of GRK1 (Q15835 whole entry): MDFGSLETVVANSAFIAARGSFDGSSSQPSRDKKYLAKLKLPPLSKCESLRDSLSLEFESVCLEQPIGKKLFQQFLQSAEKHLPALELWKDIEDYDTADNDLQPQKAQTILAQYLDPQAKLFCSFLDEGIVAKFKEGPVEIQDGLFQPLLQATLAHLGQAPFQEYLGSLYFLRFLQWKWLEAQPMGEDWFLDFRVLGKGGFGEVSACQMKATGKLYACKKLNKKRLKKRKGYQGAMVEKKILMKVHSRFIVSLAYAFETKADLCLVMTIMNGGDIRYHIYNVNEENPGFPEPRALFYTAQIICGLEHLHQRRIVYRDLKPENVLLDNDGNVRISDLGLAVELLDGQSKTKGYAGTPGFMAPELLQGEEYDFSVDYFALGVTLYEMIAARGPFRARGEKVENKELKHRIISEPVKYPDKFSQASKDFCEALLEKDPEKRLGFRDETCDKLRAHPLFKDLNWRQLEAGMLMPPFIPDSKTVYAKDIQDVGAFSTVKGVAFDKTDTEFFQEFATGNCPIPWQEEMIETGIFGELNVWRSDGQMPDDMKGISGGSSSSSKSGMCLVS
Text: as §1

TAOK2 = TAOK2 (Homo sapiens, UniProt Q9UL54); settings: 1000 nM, read-out: Percent Control
Sequence of TAOK2 (Q9UL54 whole entry): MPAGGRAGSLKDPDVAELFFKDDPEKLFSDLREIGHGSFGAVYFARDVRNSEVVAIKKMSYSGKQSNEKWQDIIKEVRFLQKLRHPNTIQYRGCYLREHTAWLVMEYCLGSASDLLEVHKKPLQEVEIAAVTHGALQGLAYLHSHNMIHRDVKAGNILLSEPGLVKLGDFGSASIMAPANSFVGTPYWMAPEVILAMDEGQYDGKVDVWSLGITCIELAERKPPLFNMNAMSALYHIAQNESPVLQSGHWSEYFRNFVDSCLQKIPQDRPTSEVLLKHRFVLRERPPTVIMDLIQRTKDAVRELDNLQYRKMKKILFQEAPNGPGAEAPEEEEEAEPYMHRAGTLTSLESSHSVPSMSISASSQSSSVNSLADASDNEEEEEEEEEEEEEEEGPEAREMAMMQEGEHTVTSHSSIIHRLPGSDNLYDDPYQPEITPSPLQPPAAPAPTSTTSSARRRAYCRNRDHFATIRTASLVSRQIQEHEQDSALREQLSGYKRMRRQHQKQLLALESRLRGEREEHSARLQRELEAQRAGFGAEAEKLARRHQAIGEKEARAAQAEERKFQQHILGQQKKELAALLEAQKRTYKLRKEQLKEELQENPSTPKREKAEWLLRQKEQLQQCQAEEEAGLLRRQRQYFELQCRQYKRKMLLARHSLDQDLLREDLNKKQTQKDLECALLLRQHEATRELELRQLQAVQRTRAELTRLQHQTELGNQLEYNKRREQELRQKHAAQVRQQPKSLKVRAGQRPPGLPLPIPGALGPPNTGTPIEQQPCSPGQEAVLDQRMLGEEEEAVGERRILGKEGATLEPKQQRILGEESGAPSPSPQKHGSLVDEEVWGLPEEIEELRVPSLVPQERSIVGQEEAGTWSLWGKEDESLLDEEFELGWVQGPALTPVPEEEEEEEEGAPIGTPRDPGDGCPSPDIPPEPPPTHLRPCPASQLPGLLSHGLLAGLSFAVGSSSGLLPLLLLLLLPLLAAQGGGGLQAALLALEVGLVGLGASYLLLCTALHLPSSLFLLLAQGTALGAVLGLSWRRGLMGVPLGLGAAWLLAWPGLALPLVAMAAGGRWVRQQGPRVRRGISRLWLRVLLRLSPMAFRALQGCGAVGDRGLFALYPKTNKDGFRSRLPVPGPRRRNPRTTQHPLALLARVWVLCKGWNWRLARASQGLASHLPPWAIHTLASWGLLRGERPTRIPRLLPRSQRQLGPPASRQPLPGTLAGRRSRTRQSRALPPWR
Text: as §1

TYRO3 = TYRO3 (Homo sapiens, UniProt Q06418); settings: 1000 nM, read-out: Percent Control
Text: as §1

MKNK2 = MKNK2 (Homo sapiens, UniProt Q9HBH9); settings: compound concentration 100 nM; Entrez MKNK2; read-out: Percent Control
Text: as §1

MST2 = MST2 (Homo sapiens, UniProt Q13188); settings: 1000 nM, read-out: Percent Control
Sequence of MST2 (Q13188 whole entry): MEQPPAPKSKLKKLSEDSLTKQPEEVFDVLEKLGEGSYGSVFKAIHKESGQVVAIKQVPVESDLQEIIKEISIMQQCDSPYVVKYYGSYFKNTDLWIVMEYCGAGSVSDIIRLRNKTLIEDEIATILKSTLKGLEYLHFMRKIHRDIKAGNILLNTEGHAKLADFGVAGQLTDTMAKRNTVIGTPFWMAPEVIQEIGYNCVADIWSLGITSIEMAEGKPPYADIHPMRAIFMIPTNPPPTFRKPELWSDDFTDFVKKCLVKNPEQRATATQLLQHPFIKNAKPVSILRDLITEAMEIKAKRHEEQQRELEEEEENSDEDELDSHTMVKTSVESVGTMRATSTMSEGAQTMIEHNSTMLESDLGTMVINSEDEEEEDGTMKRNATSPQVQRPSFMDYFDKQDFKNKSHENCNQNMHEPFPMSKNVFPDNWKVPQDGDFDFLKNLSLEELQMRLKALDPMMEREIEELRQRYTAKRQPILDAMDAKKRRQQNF
Text: as §1

ROCK1 = ROCK1 (Homo sapiens, UniProt Q13464); settings: 1000 nM, read-out: Percent Control
Text: as §1

STK39 = STK39 (Homo sapiens, UniProt Q9UEW8); settings: 1000 nM, read-out: Percent Control
Text: as §1

PIK4CB = PIK4CB (Homo sapiens, UniProt Q9UBF8); settings: 1000 nM, read-out: Percent Control
Text: as §1

DYRK2 = DYRK2 (Homo sapiens, UniProt Q92630); settings: read-out: Percent Control
Sequence of DYRK2 (Q92630 whole entry): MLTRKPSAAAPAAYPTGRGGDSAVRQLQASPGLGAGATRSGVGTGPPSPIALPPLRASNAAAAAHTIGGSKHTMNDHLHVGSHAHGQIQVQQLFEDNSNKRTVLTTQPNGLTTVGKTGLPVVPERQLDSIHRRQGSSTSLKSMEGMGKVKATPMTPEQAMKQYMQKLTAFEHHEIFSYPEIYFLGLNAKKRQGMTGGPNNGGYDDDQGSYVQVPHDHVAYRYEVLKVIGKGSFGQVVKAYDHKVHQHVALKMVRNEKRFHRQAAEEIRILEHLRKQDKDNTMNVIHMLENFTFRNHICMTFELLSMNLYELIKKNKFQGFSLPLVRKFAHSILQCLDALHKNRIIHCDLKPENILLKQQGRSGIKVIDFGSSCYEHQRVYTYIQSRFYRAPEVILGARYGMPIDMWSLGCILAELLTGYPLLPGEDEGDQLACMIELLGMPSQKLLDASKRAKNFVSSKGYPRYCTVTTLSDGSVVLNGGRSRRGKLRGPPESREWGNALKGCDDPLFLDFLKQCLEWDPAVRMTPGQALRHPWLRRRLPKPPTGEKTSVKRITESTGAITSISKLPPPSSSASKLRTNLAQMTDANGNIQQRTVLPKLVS
Text: as §1

EPHA8 = EPHA8 (Homo sapiens, UniProt P29322); settings: 1000 nM, read-out: Percent Control
Text: as §1

DCAMKL1 = DCAMKL1 (Homo sapiens, UniProt O15075); settings: read-out: Percent Control
Sequence of DCAMKL1 (O15075 whole entry): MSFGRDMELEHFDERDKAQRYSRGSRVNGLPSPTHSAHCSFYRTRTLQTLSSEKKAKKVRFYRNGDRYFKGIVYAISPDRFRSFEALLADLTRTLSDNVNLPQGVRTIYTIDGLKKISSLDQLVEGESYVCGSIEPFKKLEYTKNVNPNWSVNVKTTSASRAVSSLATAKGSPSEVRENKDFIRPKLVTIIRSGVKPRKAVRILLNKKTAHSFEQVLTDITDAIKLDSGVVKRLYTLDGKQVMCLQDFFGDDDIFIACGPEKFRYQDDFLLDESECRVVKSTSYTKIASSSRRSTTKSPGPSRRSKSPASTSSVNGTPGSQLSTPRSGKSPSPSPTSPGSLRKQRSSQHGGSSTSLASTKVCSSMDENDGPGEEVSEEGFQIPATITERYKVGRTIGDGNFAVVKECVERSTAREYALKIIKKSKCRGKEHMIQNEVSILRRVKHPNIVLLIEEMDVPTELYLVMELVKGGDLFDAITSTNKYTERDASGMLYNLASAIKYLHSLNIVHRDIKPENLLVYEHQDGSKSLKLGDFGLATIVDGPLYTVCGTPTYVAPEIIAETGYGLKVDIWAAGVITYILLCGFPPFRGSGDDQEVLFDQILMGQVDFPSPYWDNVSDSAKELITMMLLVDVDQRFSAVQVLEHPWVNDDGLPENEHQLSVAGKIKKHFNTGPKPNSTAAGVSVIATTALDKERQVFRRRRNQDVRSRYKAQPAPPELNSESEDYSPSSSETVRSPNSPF
Text: as §1

LTK = LTK (Homo sapiens, UniProt P29376); settings: 1000 nM, read-out: Percent Control
Text: as §1

TESK1 = TESK1 (Homo sapiens, UniProt Q15569); settings: 1000 nM, read-out: Percent Control
Text: as §1

MEK4 = MEK4 (Homo sapiens, UniProt P45985); settings: compound concentration 100 nM; Entrez MAP2K4; read-out: Percent Control
Text: as §1

MARK4 = MARK4 (Homo sapiens, UniProt Q96L34); settings: compound concentration 100 nM; Entrez MARK4; read-out: Percent Control
Sequence of MARK4 (Q96L34 whole entry): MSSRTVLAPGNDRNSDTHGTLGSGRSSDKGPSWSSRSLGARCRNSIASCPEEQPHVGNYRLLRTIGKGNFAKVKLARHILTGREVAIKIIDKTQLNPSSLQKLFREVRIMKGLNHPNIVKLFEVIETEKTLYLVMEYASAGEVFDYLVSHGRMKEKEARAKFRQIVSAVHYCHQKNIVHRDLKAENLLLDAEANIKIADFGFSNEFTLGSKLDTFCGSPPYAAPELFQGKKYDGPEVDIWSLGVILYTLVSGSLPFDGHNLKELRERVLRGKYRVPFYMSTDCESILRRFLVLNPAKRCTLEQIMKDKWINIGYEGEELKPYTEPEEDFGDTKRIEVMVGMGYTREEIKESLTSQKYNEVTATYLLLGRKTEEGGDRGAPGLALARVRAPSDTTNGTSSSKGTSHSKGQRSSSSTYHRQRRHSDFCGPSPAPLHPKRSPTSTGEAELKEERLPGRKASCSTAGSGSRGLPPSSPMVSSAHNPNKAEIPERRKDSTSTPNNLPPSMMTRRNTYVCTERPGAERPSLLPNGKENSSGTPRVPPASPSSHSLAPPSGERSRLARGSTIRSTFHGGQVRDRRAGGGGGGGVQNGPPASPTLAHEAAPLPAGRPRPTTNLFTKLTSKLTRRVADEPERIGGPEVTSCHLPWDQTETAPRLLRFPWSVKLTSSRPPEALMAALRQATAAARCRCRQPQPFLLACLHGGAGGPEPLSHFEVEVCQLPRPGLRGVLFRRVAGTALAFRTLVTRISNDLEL
Text: as §1

PKMYT1 = PKMYT1 (Homo sapiens, UniProt Q99640); settings: 1000 nM, read-out: Percent Control
Text: as §1

WNK4 = WNK4 (Homo sapiens, UniProt Q96J92); settings: compound concentration 100 nM; Entrez WNK4; read-out: Percent Control
Text: as §1

CTK = CTK (Homo sapiens, UniProt P42679); settings: 1000 nM, read-out: Percent Control
Text: as §1

BLK = BLK (Homo sapiens, UniProt P51451); settings: 1000 nM, read-out: Percent Control
Text: as §1

PRKR = PRKR (Homo sapiens, UniProt P19525); settings: compound concentration 100 nM; Entrez EIF2AK2; read-out: Percent Control
Text: as §1

CDC2L2 = CDC2L2 (Homo sapiens, UniProt Q9UQ88); settings: 1000 nM, read-out: Percent Control
Text: as §1

CAMKK2 = CAMKK2 (Homo sapiens, UniProt Q96RR4); settings: 1000 nM, read-out: Percent Control
Text: as §1

ADCK3 = ADCK3 (Homo sapiens, UniProt Q8NI60); settings: read-out: Percent Control
Sequence of ADCK3 (Q8NI60 163-647): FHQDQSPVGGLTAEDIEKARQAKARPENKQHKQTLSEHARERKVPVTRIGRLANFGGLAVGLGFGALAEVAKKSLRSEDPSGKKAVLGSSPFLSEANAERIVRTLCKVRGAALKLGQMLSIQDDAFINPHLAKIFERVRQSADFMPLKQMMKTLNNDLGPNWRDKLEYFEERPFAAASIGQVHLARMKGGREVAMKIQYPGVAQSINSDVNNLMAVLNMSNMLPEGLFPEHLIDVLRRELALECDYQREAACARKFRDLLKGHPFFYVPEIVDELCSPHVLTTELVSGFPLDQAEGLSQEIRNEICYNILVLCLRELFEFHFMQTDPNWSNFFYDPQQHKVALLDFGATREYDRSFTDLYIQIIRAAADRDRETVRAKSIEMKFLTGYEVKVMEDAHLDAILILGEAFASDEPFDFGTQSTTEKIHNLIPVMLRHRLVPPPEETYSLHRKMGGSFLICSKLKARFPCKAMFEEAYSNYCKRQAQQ
Text: as §1

FLT3-autoinhibited = FLT3-autoinhibited (Homo sapiens, UniProt P36888); settings: 1000 nM, read-out: Percent Control
Text: as §1

FGFR4 = FGFR4 (Homo sapiens, UniProt P22455); settings: 1000 nM, read-out: Percent Control
Text: as §1

[2] = target: RSK1(Kin.Dom.1-N-terminal) (Homo sapiens, UniProt Q15418); settings: compound concentration 100 nM; Entrez RPS6KA1; read-out: Percent Control
Text: as §1

BRK = BRK (Homo sapiens, UniProt Q13882); settings: 1000 nM, read-out: Percent Control
Text: as §1

CAMK1G = CAMK1G (Homo sapiens, UniProt Q96NX5); settings: 1000 nM, read-out: Percent Control
Text: as §1

MARK2 = MARK2 (Homo sapiens, UniProt Q7KZI7); settings: 1000 nM, read-out: Percent Control
Text: as §1

PIK3CB = PIK3CB (Homo sapiens, UniProt P42338); settings: 1000 nM, read-out: Percent Control
Text: as §1

CDK4-cyclinD1 = CDK4-cyclinD1 (Homo sapiens, UniProt P11802); settings: 1000 nM, read-out: Percent Control
Text: as §1

YANK3 = YANK3 (Homo sapiens, UniProt Q86UX6); settings: 1000 nM, read-out: Percent Control
Text: as §1

CDC2L1 = CDC2L1 (Homo sapiens, UniProt P21127); settings: 1000 nM, read-out: Percent Control
Text: as §1

Q: Which results are given for CN1C(=O)[C@@H](N2CCc3c(nn(Cc4ccccc4)c3C(N)=O)C2=O)COc2cc(Cl)ccc21 [Compound 10, (S)-2-benzyl-6-(8-chloro-5-methyl-4-oxo-2,3,4,5-tetrahydrobenzo[b][1,4]oxazepin-3-yl)-7-oxo-4,5,6,7-tetrahydro-2H-pyrazolo[3,4-c]pyridine-3-carboxamide]?
A: remaining binding at 0.1 µM (MAK): 94%; remaining binding at 1 µM [1]: 85%; remaining binding at 1 µM (WEE2): 82%; remaining binding at 1 µM (MAP3K4): 92%; remaining binding at 1 µM (GRK1; 1000 nM): 100%; remaining binding at 0.1 µM (GRK1; compound concentration 100 nM, Entrez GRK1): 100%; remaining binding at 1 µM (TAOK2): 90%; remaining binding at 1 µM (TYRO3): 97%; remaining binding at 0.1 µM (MKNK2): 94%; remaining binding at 1 µM (MST2): 80%; remaining binding at 1 µM (ROCK1): 69%; remaining binding at 1 µM (STK39): 84%; remaining binding at 1 µM (PIK4CB): 75%; remaining binding at 1 µM (DYRK2; 1000 nM): 100%; remaining binding at 0.1 µM (DYRK2; compound concentration 100 nM, Entrez DYRK2): 100%; remaining binding at 1 µM (EPHA8): 97%; remaining binding at 1 µM (DCAMKL1; 1000 nM): 100%; remaining binding at 0.1 µM (DCAMKL1; compound concentration 100 nM, Entrez DCLK1): 92%; remaining binding at 1 µM (LTK): 86%; remaining binding at 1 µM (TESK1): 79%; remaining binding at 0.1 µM (MEK4): 100%; remaining binding at 0.1 µM (MARK4): 76%; remaining binding at 1 µM (PKMYT1): 95%; remaining binding at 0.1 µM (WNK4): 100%; remaining binding at 1 µM (CTK): 97%; remaining binding at 1 µM (BLK): 88%; remaining binding at 0.1 µM (PRKR): 71%; remaining binding at 1 µM (CDC2L2): 86%; remaining binding at 1 µM (CAMKK2): 80%; remaining binding at 1 µM (ADCK3; 1000 nM): 100%; remaining binding at 0.1 µM (ADCK3; compound concentration 100 nM, Entrez CABC1): 100%; remaining binding at 1 µM (FLT3-autoinhibited): 94%; remaining binding at 1 µM (FGFR4): 84%; remaining binding at 0.1 µM [2]: 75%; remaining binding at 1 µM (BRK): 87%; remaining binding at 1 µM (CAMK1G): 88%; remaining binding at 1 µM (MARK2): 81%; remaining binding at 1 µM (PIK3CB): 88%; remaining binding at 1 µM (CDK4-cyclinD1): 72%; remaining binding at 1 µM (YANK3): 92%; remaining binding at 1 µM (CDC2L1): 83%
